Assay results taken from ChEMBL document CHEMBL4043168, “The design and SAR of a novel series of 2-aminopyridine based LRRK2 inhibitors” (Bioorg Med Chem Lett, 2017).

What was measured:
[1] = target: Serine/threonine-protein kinase B-raf (Homo sapiens) (UniProt P15056); test: Inhibition of BRAF labeling at conserved Lys2 (DLKSNNIFLHEDLTVK) in human PBMC at 1 uM
[2] = target: Diacylglycerol kinase alpha (Homo sapiens) (UniProt P23743); test: Inhibition of DGKA labeling at activation Loop (IDPVPNTHPLLVFVNPKSGGK) in human PBMC at 1 uM
[3] = target: Mitogen-activated protein kinase 1 (Homo sapiens) (UniProt P28482); test: Inhibition of Erk2 ATP binding site (DLKPSNLLLNTTCDLK) in human PBMC at 1 uM
[4] = target: Serine/threonine-protein kinase Nek7 (Homo sapiens) (UniProt Q8TDX7); test: Inhibition of NEK7 conserved Lys2 (DIKPANVFITATGVVK) in human PBMC at 1 uM
[5] = target: Serine/threonine-protein kinase Nek9 (Homo sapiens) (UniProt Q8TD19); test: Inhibition of NEK9 conserved Lys2 (DIKTLNIFLTK) in human PBMC at 1 uM
[6] = target: Serine/threonine-protein kinase SMG1 (Homo sapiens) (UniProt Q96Q15); test: Inhibition of SMG1 ATP binding site (DTVTIHSVGGTITILPTKTKPK) in human PBMC at 1 uM
[7] = target: Serine/threonine-protein kinase TBK1 (Homo sapiens) (UniProt Q9UHD2); test: Inhibition of TBK1 conserved Lys2 (DIKPGNIMR) in human PBMC at 0.1 uM
[8] = target: Mitogen-activated protein kinase 9 (Homo sapiens) (UniProt P45984); test: Inhibition of JNK2 conserved Lys2 (DLKPSNIVVK) in human PBMC at 0.1 uM
[9] = target: Tyrosine-protein kinase Lyn (Homo sapiens) (UniProt P07948); test: Inhibition of LYN activation Loop (EGAKFPIKWTAPEAINFGCFTIK) in human PBMC at 0.1 uM
[10] = target: T1, Mitogen-activated protein kinase kinase kinase 5 (Homo sapiens) (UniProt Q99683); test: Inhibition of MAP3K5 conserved Lys2 (DIKGDNVLINTYSGVLK) in human PBMC at 0.1 uM
T1 sequence (whole entry): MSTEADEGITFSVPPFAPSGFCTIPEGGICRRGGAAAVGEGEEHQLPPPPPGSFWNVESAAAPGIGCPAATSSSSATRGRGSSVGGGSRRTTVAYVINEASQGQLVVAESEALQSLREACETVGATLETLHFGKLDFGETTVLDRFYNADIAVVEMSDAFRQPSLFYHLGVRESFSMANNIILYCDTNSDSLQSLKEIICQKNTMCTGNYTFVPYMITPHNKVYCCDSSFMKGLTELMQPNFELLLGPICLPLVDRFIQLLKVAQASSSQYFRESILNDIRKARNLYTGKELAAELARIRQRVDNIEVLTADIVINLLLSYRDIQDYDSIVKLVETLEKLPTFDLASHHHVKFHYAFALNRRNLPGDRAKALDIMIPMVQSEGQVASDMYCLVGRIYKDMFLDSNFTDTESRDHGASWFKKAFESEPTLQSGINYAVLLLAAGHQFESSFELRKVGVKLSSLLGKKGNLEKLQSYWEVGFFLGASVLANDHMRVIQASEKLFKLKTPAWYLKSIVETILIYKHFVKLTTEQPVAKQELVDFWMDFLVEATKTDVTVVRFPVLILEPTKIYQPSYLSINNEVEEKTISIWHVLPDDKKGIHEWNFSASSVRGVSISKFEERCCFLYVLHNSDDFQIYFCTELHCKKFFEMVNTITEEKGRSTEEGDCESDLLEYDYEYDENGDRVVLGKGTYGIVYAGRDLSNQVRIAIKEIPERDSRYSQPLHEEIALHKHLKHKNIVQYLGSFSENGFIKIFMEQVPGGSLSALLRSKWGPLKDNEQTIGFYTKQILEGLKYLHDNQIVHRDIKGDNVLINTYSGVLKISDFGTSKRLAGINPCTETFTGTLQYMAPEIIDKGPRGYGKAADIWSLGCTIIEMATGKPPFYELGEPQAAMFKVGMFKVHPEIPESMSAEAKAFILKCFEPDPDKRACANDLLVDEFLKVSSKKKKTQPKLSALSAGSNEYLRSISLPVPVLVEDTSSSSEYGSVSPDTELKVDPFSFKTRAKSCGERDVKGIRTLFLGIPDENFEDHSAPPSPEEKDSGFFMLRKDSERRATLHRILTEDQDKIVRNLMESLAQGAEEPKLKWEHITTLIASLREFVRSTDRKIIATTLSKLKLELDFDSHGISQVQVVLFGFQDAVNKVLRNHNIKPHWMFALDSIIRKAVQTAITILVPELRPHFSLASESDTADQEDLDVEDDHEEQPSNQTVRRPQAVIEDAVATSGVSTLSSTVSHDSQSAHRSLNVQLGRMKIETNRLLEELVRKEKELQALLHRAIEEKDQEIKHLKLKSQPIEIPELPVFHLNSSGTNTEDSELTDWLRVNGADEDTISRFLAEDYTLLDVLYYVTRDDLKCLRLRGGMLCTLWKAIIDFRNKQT

[11] = target: Ribosomal protein S6 kinase alpha-5 (Homo sapiens) (UniProt O75582); test: Inhibition of MSK1 domain1 conserved Lys2 (DIKLENILLDSNGHVVLTDFGLSK) in human PBMC at 0.1 uM
[12] = target: T2, Serine/threonine-protein kinase 4 (Homo sapiens) (UniProt Q13043); test: Inhibition of MST1 conserved Lys1 ETGQIVAIKQVPVESDLQEIIK in human PBMC at 0.1 uM
T2 sequence (whole entry): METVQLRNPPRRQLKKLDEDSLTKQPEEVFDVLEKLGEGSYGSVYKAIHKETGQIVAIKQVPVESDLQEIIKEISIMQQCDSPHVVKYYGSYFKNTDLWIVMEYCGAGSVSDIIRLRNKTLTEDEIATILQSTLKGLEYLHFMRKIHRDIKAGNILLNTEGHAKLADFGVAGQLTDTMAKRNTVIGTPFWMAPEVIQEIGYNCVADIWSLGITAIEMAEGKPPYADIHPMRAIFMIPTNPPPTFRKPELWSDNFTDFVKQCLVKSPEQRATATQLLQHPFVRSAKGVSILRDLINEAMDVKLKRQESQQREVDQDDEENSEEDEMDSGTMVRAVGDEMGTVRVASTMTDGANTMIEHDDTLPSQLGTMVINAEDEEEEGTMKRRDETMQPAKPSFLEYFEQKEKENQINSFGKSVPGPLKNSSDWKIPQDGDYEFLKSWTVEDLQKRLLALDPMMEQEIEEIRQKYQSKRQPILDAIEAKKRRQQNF

[13] = target: Serine/threonine-protein kinase Nek7 (Homo sapiens) (UniProt Q8TDX7); test: Inhibition of NEK7 conserved Lys1 (AACLLDGVPVALKK) in human PBMC at 0.1 uM
[14] = target: Serine/threonine-protein kinase WNK2 (Homo sapiens) (UniProt Q9Y3S1); test: Inhibition of Wnk2 ATP binding site (GSFKTVYK) in human PBMC at 0.1 uM
Serine/threonine-protein kinase WNK2 (Homo sapiens), sequence (Q9Y3S1 whole entry): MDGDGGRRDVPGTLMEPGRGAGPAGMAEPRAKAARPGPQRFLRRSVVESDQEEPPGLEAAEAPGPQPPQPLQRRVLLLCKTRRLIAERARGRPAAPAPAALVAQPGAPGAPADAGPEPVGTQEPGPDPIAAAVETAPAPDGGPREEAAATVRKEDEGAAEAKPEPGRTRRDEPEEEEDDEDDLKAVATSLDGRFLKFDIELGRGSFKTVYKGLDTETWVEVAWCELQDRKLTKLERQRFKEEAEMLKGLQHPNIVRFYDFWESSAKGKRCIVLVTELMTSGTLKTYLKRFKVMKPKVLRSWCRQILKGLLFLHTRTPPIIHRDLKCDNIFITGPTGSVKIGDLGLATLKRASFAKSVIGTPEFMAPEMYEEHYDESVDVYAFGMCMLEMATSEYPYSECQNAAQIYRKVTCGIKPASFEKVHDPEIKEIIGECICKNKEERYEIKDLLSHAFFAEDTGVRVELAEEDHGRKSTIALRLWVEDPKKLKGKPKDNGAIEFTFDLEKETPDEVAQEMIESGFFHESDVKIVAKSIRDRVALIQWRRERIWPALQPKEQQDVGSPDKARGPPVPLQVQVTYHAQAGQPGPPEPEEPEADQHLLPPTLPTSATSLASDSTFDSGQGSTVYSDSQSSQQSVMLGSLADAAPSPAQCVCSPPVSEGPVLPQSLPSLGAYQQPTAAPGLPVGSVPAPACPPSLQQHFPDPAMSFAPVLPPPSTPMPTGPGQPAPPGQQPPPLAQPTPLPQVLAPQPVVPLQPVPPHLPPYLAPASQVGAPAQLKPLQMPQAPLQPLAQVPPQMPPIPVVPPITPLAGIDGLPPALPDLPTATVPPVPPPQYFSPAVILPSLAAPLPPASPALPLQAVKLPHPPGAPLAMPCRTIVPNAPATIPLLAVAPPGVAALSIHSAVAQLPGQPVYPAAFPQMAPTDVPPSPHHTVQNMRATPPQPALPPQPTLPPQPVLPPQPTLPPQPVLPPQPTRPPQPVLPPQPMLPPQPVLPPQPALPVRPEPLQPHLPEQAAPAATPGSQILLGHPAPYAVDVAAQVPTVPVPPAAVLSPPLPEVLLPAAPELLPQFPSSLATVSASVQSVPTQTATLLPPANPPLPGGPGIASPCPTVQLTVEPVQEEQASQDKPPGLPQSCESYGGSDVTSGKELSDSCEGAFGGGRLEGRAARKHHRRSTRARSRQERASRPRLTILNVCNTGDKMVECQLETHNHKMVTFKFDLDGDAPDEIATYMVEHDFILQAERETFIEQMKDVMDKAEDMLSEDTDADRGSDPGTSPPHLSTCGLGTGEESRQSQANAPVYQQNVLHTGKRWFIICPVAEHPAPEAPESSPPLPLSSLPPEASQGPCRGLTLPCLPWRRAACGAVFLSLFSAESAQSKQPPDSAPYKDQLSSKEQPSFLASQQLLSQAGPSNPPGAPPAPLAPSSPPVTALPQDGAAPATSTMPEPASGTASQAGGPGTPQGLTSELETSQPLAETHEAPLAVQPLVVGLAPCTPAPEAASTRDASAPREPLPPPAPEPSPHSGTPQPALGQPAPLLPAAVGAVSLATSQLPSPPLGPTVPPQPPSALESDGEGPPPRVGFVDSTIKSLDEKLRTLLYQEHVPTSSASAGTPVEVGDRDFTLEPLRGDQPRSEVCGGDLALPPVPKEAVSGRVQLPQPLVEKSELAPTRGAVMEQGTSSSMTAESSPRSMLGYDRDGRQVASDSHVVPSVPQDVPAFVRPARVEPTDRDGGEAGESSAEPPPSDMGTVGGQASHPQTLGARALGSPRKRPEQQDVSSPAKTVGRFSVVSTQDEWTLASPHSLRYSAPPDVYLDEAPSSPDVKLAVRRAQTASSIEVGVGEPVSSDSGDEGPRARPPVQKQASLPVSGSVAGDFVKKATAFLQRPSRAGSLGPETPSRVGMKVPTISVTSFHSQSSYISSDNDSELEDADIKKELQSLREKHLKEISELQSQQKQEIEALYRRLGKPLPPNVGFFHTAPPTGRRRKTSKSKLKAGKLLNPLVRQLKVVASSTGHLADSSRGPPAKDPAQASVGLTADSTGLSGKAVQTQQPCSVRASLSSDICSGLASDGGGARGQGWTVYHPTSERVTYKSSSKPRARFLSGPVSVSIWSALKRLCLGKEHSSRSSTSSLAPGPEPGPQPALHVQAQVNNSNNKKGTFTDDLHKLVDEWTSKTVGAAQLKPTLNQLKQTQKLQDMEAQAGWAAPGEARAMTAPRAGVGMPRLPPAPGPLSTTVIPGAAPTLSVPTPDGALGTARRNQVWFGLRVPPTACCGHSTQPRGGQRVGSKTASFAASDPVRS

Serine/threonine-protein kinase Nek7 (Homo sapiens), sequence (Q8TDX7 whole entry, looked up): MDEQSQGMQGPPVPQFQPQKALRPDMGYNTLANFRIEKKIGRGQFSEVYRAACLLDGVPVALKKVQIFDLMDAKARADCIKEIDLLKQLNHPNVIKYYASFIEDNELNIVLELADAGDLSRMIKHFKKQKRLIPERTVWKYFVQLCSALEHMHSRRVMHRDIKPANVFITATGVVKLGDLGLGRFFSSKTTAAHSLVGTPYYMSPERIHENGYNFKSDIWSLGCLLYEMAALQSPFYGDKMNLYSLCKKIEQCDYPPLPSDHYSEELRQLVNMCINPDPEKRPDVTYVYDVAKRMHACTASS
Serine/threonine-protein kinase TBK1 (Homo sapiens), sequence (Q9UHD2 whole entry): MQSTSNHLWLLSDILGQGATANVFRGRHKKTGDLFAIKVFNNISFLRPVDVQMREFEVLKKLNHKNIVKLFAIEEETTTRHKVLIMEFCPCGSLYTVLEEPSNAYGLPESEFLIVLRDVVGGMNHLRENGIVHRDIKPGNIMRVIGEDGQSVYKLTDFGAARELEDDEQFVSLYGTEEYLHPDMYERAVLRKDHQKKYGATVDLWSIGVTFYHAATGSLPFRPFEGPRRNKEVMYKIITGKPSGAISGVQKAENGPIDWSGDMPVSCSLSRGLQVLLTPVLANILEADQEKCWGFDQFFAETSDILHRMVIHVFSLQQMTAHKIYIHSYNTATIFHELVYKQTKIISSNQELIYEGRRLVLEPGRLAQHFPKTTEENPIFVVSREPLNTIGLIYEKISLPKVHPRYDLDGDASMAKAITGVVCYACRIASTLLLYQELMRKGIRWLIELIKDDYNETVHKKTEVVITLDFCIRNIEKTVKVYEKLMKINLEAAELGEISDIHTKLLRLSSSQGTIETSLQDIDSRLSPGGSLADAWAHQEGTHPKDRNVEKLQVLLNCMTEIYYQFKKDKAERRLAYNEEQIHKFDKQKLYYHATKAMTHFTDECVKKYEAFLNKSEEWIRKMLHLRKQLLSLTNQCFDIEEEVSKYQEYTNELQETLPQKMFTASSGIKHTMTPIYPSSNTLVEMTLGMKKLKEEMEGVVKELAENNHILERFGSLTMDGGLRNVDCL
Serine/threonine-protein kinase Nek9 (Homo sapiens), sequence (Q8TD19 whole entry): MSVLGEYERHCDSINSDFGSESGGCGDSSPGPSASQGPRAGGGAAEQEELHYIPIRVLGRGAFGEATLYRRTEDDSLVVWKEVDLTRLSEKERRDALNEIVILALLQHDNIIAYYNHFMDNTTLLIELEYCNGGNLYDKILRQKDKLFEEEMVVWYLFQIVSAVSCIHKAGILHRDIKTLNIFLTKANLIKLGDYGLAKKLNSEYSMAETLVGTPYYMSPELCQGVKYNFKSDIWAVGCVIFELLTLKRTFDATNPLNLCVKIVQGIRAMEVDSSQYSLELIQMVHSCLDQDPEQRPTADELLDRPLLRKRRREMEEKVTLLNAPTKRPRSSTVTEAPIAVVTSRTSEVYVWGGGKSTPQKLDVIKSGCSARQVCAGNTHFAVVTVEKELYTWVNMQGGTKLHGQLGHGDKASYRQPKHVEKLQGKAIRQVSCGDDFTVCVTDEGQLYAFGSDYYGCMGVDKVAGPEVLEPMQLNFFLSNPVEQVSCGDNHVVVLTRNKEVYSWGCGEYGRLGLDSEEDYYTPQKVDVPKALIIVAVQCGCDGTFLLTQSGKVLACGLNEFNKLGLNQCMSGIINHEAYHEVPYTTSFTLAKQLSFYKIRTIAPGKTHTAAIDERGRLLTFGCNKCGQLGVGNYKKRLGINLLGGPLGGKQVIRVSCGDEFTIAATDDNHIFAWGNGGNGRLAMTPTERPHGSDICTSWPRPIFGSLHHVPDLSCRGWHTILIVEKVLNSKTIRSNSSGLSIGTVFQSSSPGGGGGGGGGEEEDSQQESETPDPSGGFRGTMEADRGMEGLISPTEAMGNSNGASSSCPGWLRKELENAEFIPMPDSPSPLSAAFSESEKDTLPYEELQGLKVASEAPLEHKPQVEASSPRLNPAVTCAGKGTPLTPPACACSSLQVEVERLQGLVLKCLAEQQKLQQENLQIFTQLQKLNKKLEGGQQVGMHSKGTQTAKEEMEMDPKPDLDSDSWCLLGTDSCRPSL
Tyrosine-protein kinase Lyn (Homo sapiens), sequence (P07948 2-512 limits assumed): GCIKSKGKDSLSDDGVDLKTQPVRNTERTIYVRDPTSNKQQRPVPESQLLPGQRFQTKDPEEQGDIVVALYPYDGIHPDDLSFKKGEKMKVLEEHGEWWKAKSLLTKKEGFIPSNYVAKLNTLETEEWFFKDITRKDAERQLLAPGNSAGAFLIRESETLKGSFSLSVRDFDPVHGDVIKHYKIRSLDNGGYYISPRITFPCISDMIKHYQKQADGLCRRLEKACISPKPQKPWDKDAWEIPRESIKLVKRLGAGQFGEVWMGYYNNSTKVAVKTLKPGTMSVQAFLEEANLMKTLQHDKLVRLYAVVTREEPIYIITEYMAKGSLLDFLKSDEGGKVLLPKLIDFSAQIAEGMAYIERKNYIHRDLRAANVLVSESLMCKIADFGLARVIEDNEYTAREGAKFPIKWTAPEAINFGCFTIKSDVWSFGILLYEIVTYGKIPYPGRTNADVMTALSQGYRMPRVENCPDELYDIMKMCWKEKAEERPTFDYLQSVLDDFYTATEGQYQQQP

## CC(C)n1cc(-c2cc(-c3ccc(CN4CCOCC4)cc3)cnc2N)nn1
[1]
  inhibition: 11.4%
[2]
  inhibition: -9.6%
[3]
  inhibition: 14.9%
[4]
  inhibition: -9.6%
[5]
  inhibition: 25.5%
[6]
  inhibition: -8.2%
[7]
  inhibition: 21.7%
[8]
  inhibition: 25.1%
[9]
  inhibition: 6.1%
[10]
  inhibition: 11%
[11]
  inhibition: 33.6%
[12]
  inhibition: -6.6%
[13]
  inhibition: 7.6%
[14]
  inhibition: 18.3%
